In one experiment the target is T1, mutant B-RAF (Homo sapiens, UniProt P15056, V600E).
T1 construct: purchased Upstate (Charlottesville, Va.)
T1 sequence (P15056 whole entry V600E): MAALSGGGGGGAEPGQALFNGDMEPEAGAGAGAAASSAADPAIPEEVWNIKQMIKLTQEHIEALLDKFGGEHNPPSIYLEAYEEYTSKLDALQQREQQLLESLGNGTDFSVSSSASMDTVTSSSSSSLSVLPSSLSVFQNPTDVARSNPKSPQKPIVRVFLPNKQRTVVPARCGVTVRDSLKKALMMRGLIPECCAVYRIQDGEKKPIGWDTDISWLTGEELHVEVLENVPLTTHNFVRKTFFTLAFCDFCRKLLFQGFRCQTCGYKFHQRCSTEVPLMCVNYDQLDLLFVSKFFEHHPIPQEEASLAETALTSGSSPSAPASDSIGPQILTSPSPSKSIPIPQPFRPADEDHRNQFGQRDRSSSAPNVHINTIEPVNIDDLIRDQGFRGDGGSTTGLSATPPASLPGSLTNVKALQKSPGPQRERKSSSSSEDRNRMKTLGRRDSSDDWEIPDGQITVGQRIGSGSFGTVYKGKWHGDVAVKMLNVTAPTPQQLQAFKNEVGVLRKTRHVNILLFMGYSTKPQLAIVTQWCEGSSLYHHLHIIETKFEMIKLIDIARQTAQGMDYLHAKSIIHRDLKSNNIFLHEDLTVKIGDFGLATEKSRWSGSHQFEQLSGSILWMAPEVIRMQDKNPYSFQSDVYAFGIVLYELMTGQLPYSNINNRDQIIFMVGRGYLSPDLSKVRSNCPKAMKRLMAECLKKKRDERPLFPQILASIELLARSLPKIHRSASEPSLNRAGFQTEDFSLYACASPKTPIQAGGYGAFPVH
As to the kind of experiment: RAF biochemical assay (MEK-1 phosphorylation, anti-phospho MEK1/2 detection). Particulars: @ 3 uM. As to the method:
Materials: The RAF kinases and the anti-phospho MEK1/2 antibody were from Upstate (Charlottesville, Va.). The RAF substrate used was full length N-terminal GST-MEK-1, which was expressed in E. coli and purified in-house by HPLC. All proteins were aliquoted and stored at −80° C.
Compounds were serially diluted in assay buffer containing 1% DMSO and 20 μL of test compound at a concentration 3-fold more than the final concentration, and were added to a polypropylene V-well reaction plate. Vehicle control wells received buffer only with DMSO at equivalent concentrations to the test wells. […] These reaction plates were incubated at room temperature for 30 minutes. Capture of MEK-1 was initiated by transferring 50 μl of the reaction mixture to a Nunc Maxisorp™ microplate that is designed for non-specific protein capture. After 30 minute capture of MEK-1 at room temperature, this plate was washed with TBST (6×200 μL/well) to fully terminate the reaction. The plate was then blocked for 1 hour by the addition of 100 μl/well of Superblock™ in phosphate buffered saline (PBS) blocking reagent. Plate was again washed with TBST (6 times with 200 μL/well), followed by the addition of 70 μL/well of Upstate anti-phospho MEK 1/2 diluted 1:1000 in Pierce Superblock (PBS). After a 60 minute incubation, this plate was washed with TBST (6 times with 200 μL/well), and 70 μL of the secondary antibody (Pierce Alkaline Phosphatase tagged goat anti-rabbit) prepared at 1:4000 in Superblock, were added. After a 45 minute incubation at room temperature, the wells of the microplate were washed with TBST (6 times with 200 μL/well), and thereafter 100 μl/well of Attophos™ fluorescent alkaline phosphatase substrate was added according to the manufacturer's instructions (JBL Scientific).
Take `c1ccc(-c2ccc(-c3nc4sccn4c3-c3ccnc(NC4CCNCC4)n3)cc2)cc1` [Example 250, 4-(6-biphenyl-4-ylimidazo[2,1-b][1,3]thiazol-5-yl)-N-piperidin-4-ylpyrimidin-2-amine]: the inhibition at 3 µM came out at 2%.

Still in this experiment, the particulars now being: @ 10 uM.
Consider `O=S(=O)(c1ccccc1)N1CCC[C@@H](Nc2nccc(-c3c(-c4ccc(F)cc4)nc4occn34)n2)C1` [Example 42, 4-[6-(4-fluorophenyl)imi-dazo[2,1-b][1,3]oxazol-5-yl]-N-[(3R)-1-(phenylsulfonyl)piperidin-3-yl]pyrimidin-2-amine], for which the “Mutant B-RAF % inhibition” value was 68 @ 10 uM %.

Staying with this experiment, now noted: @ 10 uM; read-out: Mutant B-RAF % inhibition.
Turning to `Fc1ccc(-c2nc3occn3c2-c2ccnc(NC3CCNCC3)n2)c(F)c1` [Example 300, 4-[6-(2,4-difluorophenyl)imidazo[2,1-b][1,3]oxazol-5-yl]-N-piperidin-4-ylpyrimidin-2-amine], the inhibition at 10 µM came to 65%.

In the case of `O=C(NCc1ccco1)N1CCC(Nc2nccc(-c3c(-c4ccc(F)c(F)c4)nc4sccn34)n2)CC1` [Example 243, 4-({4-[6-(3,4-difluorophenyl)imidazo[2,1-b][1,3]thiazol-5-yl]pyrimidin-2-yl}amino)-N-(2-furylmethyl)piperidine-1-carboxamide], the inhibition at 10 µM came to 76%.

For the compound `Cc1ccccc1-c1nc2occn2c1-c1ccnc(NC2CCNCC2)n1` [Example 304, 4-[6-(2-methylphenyl)imidazo[2,1-b][1,3]oxazol-5-yl]-N-piperidin-4-ylpyrimidin-2-amine], the inhibition at 10 µM came out at 56%.

For the compound `N#Cc1cccc(-c2nc3sccn3c2-c2ccnc(N[C@@H]3CCNC3)n2)c1` [Example 284, 3-(5-{2-[(3R)-pyrrolidin-3-ylamino]pyrimidin-4-yl}imidazo[2,1-b][1,3]thiazol-6-yl)benzonitrile], the inhibition at 10 µM is 61%.

Take `O=C(NCc1ccco1)N1CCC[C@@H](Nc2nccc(-c3c(-c4ccc(F)c(F)c4)nc4sccn34)n2)C1` [Example 88, (3R)-3-({4-[6-(3,4-difluorophenyl)imidazo[2,1-b][1,3]thiazol-5-yl]pyrimidin-2-yl}amino)-N-(2-furylmethyl)piperidine-1-carboxamide]: the inhibition at 10 µM amounted to 54%.

As for `COc1cccc(-c2nc3sccn3c2-c2ccnc(N[C@H]3CCCN(S(=O)(=O)c4ccc(Cl)cc4)C3)n2)c1` [Example 139, N-{(3S)-1-[(4-chlorophenyl)sulfonyl]piperidin-3-yl}-4-[6-(3-methoxyphenyl)imidazo[2,1-b][1,3]thiazol-5-yl]pyrimidin-2-amine], the inhibition at 10 µM was determined as 41%.

As to `O=S(=O)(c1ccc(Cl)cc1)N1CC[C@@H](Nc2nccc(-c3c(-c4ccc(F)cc4)nc4sccn34)n2)C1` [Example 278, N-{(3R)-1-[(4-chlorophenyl)sulfonyl]pyrro-lidin-3-yl}-4-[6-(4-fluorophenyl)imidazo[2,1-b][1,3]thiazol-5-yl]pyrimidin-2-amine], the inhibition at 10 µM came to 10%.

Take `O=S(=O)(c1ccc(Cl)cc1)N1CCC(Nc2nccc(-c3c(-c4ccc(O)cc4)nc4sccn34)n2)CC1` [Example 264, 4-{5-[2-({1-[(4-chlorophenyl)sulfonyl]piperidin-4-yl}amino)pyrimidin-4-yl]imidazo[2,1-b][1,3]thiazol-6-yl}phenol]: the inhibition at 10 µM was determined as 5%.

As to `O=C(Cc1ccc(F)cc1)N1CCC(Nc2nccc(-c3c(-c4ccc(F)cc4)nc4occn34)n2)CC1` [Example 179, N-{1-[(4-fluorophenyl)acetyl]piperidin-4-yl}-4-[6-(4-fluorophenyl)imidazo[2,1-b][1,3]oxazol-5-yl]pyrimidin-2-amine], the inhibition at 10 µM is 29%.

Still in this experiment, the particulars now being: read-out: Mutant B-RAF IC50.
For `COc1ccc(S(=O)(=O)N2CCC[C@@H](Nc3nccc(-c4c(-c5cccc(OC)c5)nc5sccn45)n3)C2)cc1` [Example 149, 4-[6-(3-methoxyphenyl)imidazo[2,1-b][1,3]thiazol-5-yl]-N-{(3R)-1-[(4-methoxyphenyl)sulfonyl]piperidin-3-yl}pyrimidin-2-amine], the concentration for half-maximal inhibition (IC50) was 0.188 µM.

Turning to `c1ccc2cc(-c3nc4sccn4c3-c3ccnc(N[C@@H]4CCCNC4)n3)ccc2c1` [Example 97, 4-[6-(2-naphthyl)imidazo[2,1-b][1,3]thiazol-5-yl]-N-[(3R)-piperidin-3-yl]pyrimidin-2-amine], the IC50 came to 0.314 µM.

As for `Cc1cn2c(-c3ccnc(NC4CCN(S(=O)(=O)c5ccc(Cl)cc5)CC4)n3)c(-c3ccc(F)cc3)nc2s1` [Example 257, N-{1-[(4-chlorophenyl)sulfonyl]piperidin-4-yl}-4-[6-(4-fluorophenyl)-2-methylimidazo[2,1-b][1,3]thiazol-5-yl]pyrimidin-2-amine], the IC50 is 0.073 µM.

In the case of `O=C(Nc1ccc(F)c(F)c1)N1CCC(Nc2nccc(-c3c(-c4ccc(F)cc4)nc4occn34)n2)CC1` [Example 193, N-(3,4-difluorophenyl)-4-({4-[6-(4-fluorophenyl)imidazo[2,1-b][1,3]oxazol-5-yl]pyrimidin-2-yl}amino)piperidine-1-carboxamide], the IC50 worked out at 1.23 µM.

As for `CCS(=O)(=O)N1CCC[C@@H](Nc2nccc(-c3c(-c4cccc(O)c4)nc4sccn34)n2)C1` [Example 373, 3-[5-(2-{[(3R)-1-(ethylsulfonyl)piperidin-3-yl]amino}pyrimidin-4-yl)imidazo[2,1-b][1,3]thiazol-6-yl]phenol], the IC50 is > 3 µM.

Regarding `O=C(NCc1ccco1)N1CCC(Nc2nccc(-c3c(-c4ccc(F)cc4)nc4occn34)n2)CC1` [Example 176, 4-({4-[6-(4-fluorophenyl)imidazo[2,1-b][1,3]oxazol-5-yl]pyrimidin-2-yl}amino)-N-(2-furylmethyl)piperidine-1-carboxamide], the IC50 turned out to be 0.082 µM.

On to `CC(=O)Nc1cccc(-c2nc3sccn3c2-c2ccnc(N[C@@H]3CCCN(S(=O)(=O)c4ccc(Cl)cc4)C3)n2)c1` [Example 123, N-(3-{5-[2-({(3R)-1-[(4-chlorophenyl)sulfonyl]piperidin-3-yl}amino)pyrimidin-4-yl]imidazo[2,1-b][1,3]thiazol-6-yl}phenyl)acetamide], for which the IC50 is 0.215 µM.

On to `Cc1ccc(S(=O)(=O)N2CCC(Nc3nccc(-c4c(-c5ccc(F)cc5)nc5occn45)n3)CC2)cc1` [Example 198, 4-[6-(4-fluorophenyl)imidazo[2,1-b][1,3]oxazol-5-yl]-N-{1-[(4-methylphenyl)sulfonyl]piperidin-4-yl}pyrimidin-2-amine], for which the IC50 was found to be 0.218 µM.

Consider `Fc1ccc(-c2nc3sccn3c2-c2ccnc(N[C@@H]3CCNC3)n2)cc1` [Example 277, 4-[6-(4-fluorophenyl)imidazo[2,1-b][1,3]thiazol-5-yl]-N-[(3R)-pyrrolidin-3-yl]pyrimidin-2-amine], for which the IC50 was found to be 0.044 µM.

Regarding `COc1cc(-c2nc3sccn3c2-c2ccnc(N[C@@H]3CCCN(S(=O)(=O)c4ccc(Cl)cc4)C3)n2)ccc1F` [Example 348, N-{(3R)-1-[(4-chlorophenyl)sulfonyl]piperidin-3-yl}-4-[6-(4-fluoro-3-methoxyphenyl)imidazo[2,1-b][1,3]thiazol-5-yl]pyrimidin-2-amine], the IC50 is 0.105 µM.

Regarding `COc1cccc(-c2nc3sccn3c2-c2ccnc(N[C@@H]3CCCN(S(=O)(=O)C4CC4)C3)n2)c1` [Example 325, N-[(3R)-1-(cyclopropylsulfonyl)piperidin-3-yl]-4-[6-(3-methoxyphenyl)imidazo[2,1-b][1,3]thiazol-5-yl]pyrimidin-2-amine], the IC50 was 4 µM.

Regarding `COc1ccc(NC(=O)N2CCC(Nc3nccc(-c4c(-c5ccc(F)cc5)nc5occn45)n3)CC2)cc1` [Example 173, 4-({4-[6-(4-fluorophenyl)imidazo[2,1-b][1,3]oxazol-5-yl]pyrimidin-2-yl}amino)-N-(4-methoxyphenyl)piperidine-1-carboxamide], the IC50 is 2.56 µM.

As for `O=S(=O)(c1ccc(F)cc1)N1CCC[C@@H](Nc2nccc(-c3c(-c4ccc(F)c(F)c4)nc4sccn34)n2)C1` [Example 85, 4-[6-(3,4-difluorophenyl)imidazo[2,1-b][1,3]thiazol-5-yl]-N-{(3R)-1-[(4-fluorophenyl)sulfonyl]piperidin-3-yl}pyrimidin-2-amine], the IC50 turned out to be 0.058 µM.

Take `CS(=O)(=O)Nc1cccc(-c2nc3sccn3c2-c2ccnc(N[C@@H]3CCCN(S(=O)(=O)c4ccc(Cl)cc4)C3)n2)c1` [Example 346, N-(3-{5-[2-({(3R)-1-[(4-chlorophenyl)sulfonyl]piperidin-3-yl}amino)pyrimidin-4-yl]imidazo[2,1-b][1,3]thiazol-6-yl}phenyl)methanesulfonamide]: the half-inhibitory concentration (IC50) amounted to 0.88 µM.

As to `O=C(O)c1ccc(S(=O)(=O)N2CCC[C@@H](Nc3nccc(-c4c(-c5ccc(F)cc5)nc5occn45)n3)C2)cc1` [Example 59, 4-{[(3R)-3-({4-[6-(4-fluorophenyl)imidazo[2,1-b][1,3]oxazol-5-yl]pyrimidin-2-yl}amino)piperidin-1-yl]sulfonyl}benzoic acid], the IC50 was found to be 0.576 µM.

`COC(=O)N1CCC(Nc2nccc(-c3c(-c4cccc(O)c4)nc4sccn34)n2)CC1` [Example 394, methyl 4-({4-[6-(3-hydroxyphenyl)imidazo[2,1-b][1,3]thiazol-5-yl]pyrimidin-2-yl}amino)piperidine-1-carboxylate]: the IC50 was > 3 µM.

A word on the inhibition: it is the drop in the measured response relative to a control, in per cent. The term IC50 denotes the midpoint of a concentration-inhibition curve.

For the origin of these results see patent US7501430B2 (ArQule, Inc., priority 2006, dated 2009).
